Results: ChEMBL document CHEMBL1146130, “Benzoxazole benzenesulfonamides as allosteric inhibitors of fructose-1,6-bisphosphatase” (Bioorg Med Chem Lett, 2006)

System: not listed separately
Assay: Half life in rat at 5 mg/kg, po
Assay type: ADME, organism-based
Design: dose 5 mg/kg, route oral
Conditions: in vivo

| SMILES | half-life [h] |
| --- | --- |
| O=S(=O)(Nc1nc2cc(Cl)ccc2o1)c1ccc2ccccc2c1 | 7.5 |

Target: T1, Fructose-1,6-bisphosphatase 1 (Homo sapiens, UniProt P09467)
T1 sequence (P09467 whole entry): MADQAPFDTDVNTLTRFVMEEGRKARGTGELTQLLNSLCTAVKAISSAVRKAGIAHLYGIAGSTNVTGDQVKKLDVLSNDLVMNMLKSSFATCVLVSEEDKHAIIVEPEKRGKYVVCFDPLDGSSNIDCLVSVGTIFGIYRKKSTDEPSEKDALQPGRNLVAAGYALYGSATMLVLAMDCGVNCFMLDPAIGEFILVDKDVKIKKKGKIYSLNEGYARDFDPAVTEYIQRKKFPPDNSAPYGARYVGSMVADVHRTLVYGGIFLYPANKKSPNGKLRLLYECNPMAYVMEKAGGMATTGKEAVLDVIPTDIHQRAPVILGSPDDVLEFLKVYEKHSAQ
Assay: Inhibition of human FBPase1
Conditions: not given

| SMILES | IC50 [µM] |
| --- | --- |
| O=S(=O)(Nc1nc2cc(Cl)ccc2o1)c1cccc(-c2ccccc2)c1 | 9.8 |
| O=S(=O)(Nc1nc2c(I)cccc2o1)c1cc(Cl)ccc1Cl | > 50 |
| Cc1cccc2oc(NS(=O)(=O)c3cc(Cl)ccc3Cl)nc12 | 55 |
| O=S(=O)(Nc1nc2c(C3=CCNC=C3)cccc2o1)c1cc(Cl)ccc1Cl | > 50 |
| O=S(=O)(Nc1nc2ccc(Cl)cc2o1)c1cc(Cl)ccc1Cl | 8.1 |
| CCCCS(=O)(=O)Nc1nc2cc(Cl)ccc2o1 | > 50 |
| CS(=O)(=O)Nc1nc2cc(Cl)ccc2o1 | > 50 |
| CCCC(=O)Nc1ccc(S(=O)(=O)Nc2nc3cc(Cl)ccc3o2)cc1 | 12 |
| Cc1ccc2nc(NS(=O)(=O)c3cc(Cl)ccc3Cl)oc2c1 | 10 |
| COc1ccc2nc(NS(=O)(=O)c3cc(Cl)ccc3Cl)oc2c1 | 8 |
| O=S(=O)(Nc1nc2cc(Cl)ccc2o1)c1ccccc1-n1ccnc1 | 23 |
| O=S(=O)(Nc1nc2cc(Cl)ccc2o1)c1cccs1 | 13 |
| O=S(=O)(Nc1nc2cc(Cl)ccc2o1)c1c(Cl)cccc1Cl | > 50 |
| CC(C)(C)c1ccc2oc(NS(=O)(=O)c3cc(Cl)ccc3Cl)nc2c1 | 32 |
| Cn1cnc(S(=O)(=O)Nc2nc3cc(Cl)ccc3o2)c1 | 9.4 |
| CC(C)(C)c1ccc(COc2cccc(S(=O)(=O)Nc3nc4cc(Cl)ccc4o3)c2)cc1 | > 50 |
| CC(C)(C)c1ccc(S(=O)(=O)Nc2nc3cc(Cl)ccc3o2)cc1 | 24 |
| Cc1cccc(Cl)c1S(=O)(=O)Nc1nc2cc(Cl)ccc2o1 | > 50 |

Results, then the molecule that gave them:

| IC50 [µM] | SMILES |
| --- | --- |
| 1.9 | O=S(=O)(Nc1nc2cc(Br)ccc2o1)c1cc(Cl)ccc1Cl |
| 3.8 | O=S(=O)(Nc1nc2cc(Cl)ccc2o1)c1ccccc1-c1ccccc1 |
| 4 | O=S(=O)(Nc1nc2cc(Cl)ccc2o1)c1ccc(-c2ccccc2)cc1 |
| 6.2 | Cc1ccc(S(=O)(=O)Nc2nc3cc(Cl)ccc3o2)cc1 |
| 1.7 | COc1cc(-c2cccc(O)c2)c2oc(NS(=O)(=O)c3cc(Cl)ccc3Cl)nc2c1 |
| 7.8 | O=S(=O)(Nc1nc2cc(Cl)ccc2o1)c1ccc(OC(F)(F)F)cc1 |
| 6.4 | Cc1ccc2oc(NS(=O)(=O)c3cc(Cl)ccc3Cl)nc2c1 |
| 1.3 | COc1cc(-c2ccc(N)cc2)c2oc(NS(=O)(=O)c3cc(Cl)ccc3Cl)nc2c1 |
| 3.4 | O=S(=O)(Nc1nc2cc(Cl)ccc2o1)c1ccc2cc3ccccc3cc2c1 |
| 3.4 | O=S(=O)(Nc1nc2cc(Cl)ccc2o1)c1cc(Cl)ccc1Cl |
| 7.7 | O=S(=O)(Nc1nc2cc(Cl)ccc2o1)c1ccccc1 |
| 1.8 | O=[N+]([O-])c1cccc(S(=O)(=O)Nc2nc3cc(Cl)ccc3o2)c1 |
| 4 | O=S(=O)(Nc1nc2cc(-c3ccoc3)ccc2o1)c1cc(Cl)ccc1Cl |
| 1.3 | O=S(=O)(Nc1nc2cc(Cl)ccc2o1)c1cccc(Cl)c1 |
| 1.8 | COc1cc(-c2ccc(O)cc2)c2oc(NS(=O)(=O)c3cc(Cl)ccc3Cl)nc2c1 |
| 6.7 | O=S(=O)(Nc1nc2cc(Cl)ccc2o1)c1ccc(-c2ccoc2)cc1 |
| 6.5 | O=S(=O)(Nc1nc2cc(Cl)ccc2o1)c1ccccc1Br |
| 2.8 | O=S(=O)(Nc1nc2cc(Cl)ccc2o1)c1ccc(F)cc1 |
| 2.5 | O=S(=O)(Nc1nc2cc(Cl)ccc2o1)c1ccc2ccccc2c1 |
| 6 | N#Cc1ccccc1S(=O)(=O)Nc1nc2cc(Cl)ccc2o1 |
| 2.6 | COc1cc(-c2cccc(CN)c2)c2oc(NS(=O)(=O)c3cc(Cl)ccc3Cl)nc2c1 |

System: not listed separately
Assay: Oral bioavailability in rat at 5 mg/kg, po
Assay type: ADME, organism-based
Conditions: in vivo

| SMILES | bioavailability [%] |
| --- | --- |
| O=S(=O)(Nc1nc2cc(Cl)ccc2o1)c1ccc2ccccc2c1 | > 100 |

System: not listed separately
Assay: Plasma clearance in rat at 5 mg/kg
Assay type: ADME, organism-based
Design: dose 5 mg/kg
Conditions: not given

| SMILES | clearance [mL/min/kg] |
| --- | --- |
| O=S(=O)(Nc1nc2cc(Cl)ccc2o1)c1ccc2ccccc2c1 | 0.667 |
